From US11732264B2, “Compositions and methods for treating COVID-19” (Vast Sea Biotechnology, Inc., priority 2020, dated 2023)
Like-named read-outs stand apart in the source and are kept apart here. d = 2'-deoxy (DNA); r = 2'-OH (RNA)

Columns and labels:
Format in all cases: cell-based
[1] = system: SARS-CoV-2 N-protein; conditions: HBTEC, qRT-PCR
[2] = system: SARS-CoV-2 N-protein; conditions: HSAEC, qRT-PCR
[3] = system: SARS-CoV-2 N-protein; conditions: HNEpC, qRT-PCR
[4] = oligos 24-48 hours, with lipofectamine
[5] = oligos 24-48 hours, lipofectamine or Arginine not stated at the result

In the case of “TGTTAATTGGAACGCCTTGTC (Cy3 label, position not given here) [VS_ASO_2-Cy3]”, the “down-regulation of SARS-CoV-2 N-protein expression” value (“down-regulation” for short) [1, 4] was “about 6 fold”, the “down-regulation” value [2, 4] was “about 1.5 fold” and the “down-regulation” value [3, 5] was “about 15 fold”.
“TGTTAATTGGAACGCCTTGTC (FANA modified, pattern not given here, FITC label) [VS_ASO_1-FANA-FITC]” was tested, and the “down-regulation” value ([1]; without any reagents) was “about 8 fold”, the “down-regulation” value ([2]; oligo 24-48 hours, without any reagents) was “about 6 fold” and the “down-regulation” value ([3]; without any reagents) was “about 350 fold”.
“VS_DsiRNA-Cy5: DsiRNA SEQ ID NOs: 23 & 24, target N-protein, Cy5 labeled (chain 1 AAACUAAAAUGUCUGAUAAUGGACC; chain 2 GGUCCAUUAUCAGACAUUUUAGUUUGU; chain 1: sugars from the 5' end r23 d2, backbone not given here; chain 2: chemistry not given here; Cy5 label)” was tested, and the “down-regulation” value [1, 4] was “about 4 fold”, the “down-regulation” value [2, 4] was “about 5 fold” and the “down-regulation” value [3, 5] was “about 90 fold”.
